In publication PMC9525908, “α-Crystallin chaperone mimetic drugs inhibit lens γ-crystallin aggregation: Potential role for cataract prevention” (The Journal of Biological Chemistry, 2022):
“Also recorded” adds a separate entry of the source.

How the values were obtained:
Assay type in all cases: biochemical
WT-HγD crystallin = molecular target: T1, WT-HγD crystallin (Homo sapiens, UniProt P07320); assay: Thermal unfolding of WT-HγD by fluorescence ratio (Tm); settings: 100 μM agent, 360/320 nm ratio; 78 ± 0.1 °C without agent
T1 construct: made in house; host or cells: E. coli BL21(DE3) pLysS, pET3d vector
T1 sequence (P07320 1-174): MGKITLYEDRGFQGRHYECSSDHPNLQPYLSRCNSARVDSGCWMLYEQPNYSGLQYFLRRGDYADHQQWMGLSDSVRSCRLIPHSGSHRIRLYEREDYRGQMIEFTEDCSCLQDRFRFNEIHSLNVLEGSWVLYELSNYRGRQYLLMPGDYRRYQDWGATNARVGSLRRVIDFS
Excerpt: His-tag free recombinant HγD crystallin produced in Escherichia coli using pET3d or pET17b expression vector was used to investigate the effects of compounds C and G against thermal-induced unfolding and aggregate formation. The antiaggregation potency of drug C and G was reconfirmed by dynamic light scattering (DLS) (Fig. 2A). […] There is a decrease in the size of aggregates from as high as 7261 nm without drugs to 30.5 nm with drug C and 84.9 nm with drug G. Drug M has moderate activity with mean aggregate size of 569 nm radius (Table S2). […] Furthermore, we investigated whether these drugs can prevent thermal unfolding of HγD (Fig. 2C). […] It is the temperature at which 50% of the protein unfolds.
(§1) Thermal denaturation study was monitored using fluorescence spectroscopy. Protein solutions (10 μM) in the presence and absence of drugs or bis-ANS (100 μM) were heated continuously from 30 to 95 °C, and the fluorescence data were collected every 5 °C after 1 min equilibration at the given temperature. Unfolding data were fit to Greene and Pace’s two-state model ([82]) using GraphPad Prism software (GraphPad Software, Inc).

HγD-ox [1] = molecular target: T2, HγD-ox (Homo sapiens, UniProt P07320); assay: Thermal unfolding (Tm) of oxidized HγD; settings: 100 μM agent, 360/320 nm ratio; 68 ± 0.07 °C without agent
T2 construct: made in house; host or cells: Escherichia coli BL21(DE3) pLysS, pET3d vector
T2 sequence (P07320 1-174): T1 sequence (P07320 1-174)
Excerpt: (§2) In postsubmission experiments, we attempted to find mechanistic clues relevant to the use of an H2O2 oxidation step prior to the thermal stress used during the initial drug screen. For this reason, we did a comparative study of oxidized (HγD-ox) versus native HγD (HyD-nat), hypothesizing that bis-ANS would both act like the drugs and provide information on the role of exposed hydrophobicity ([40]). HγD was oxidized in diethylenetriaminepentaacetic acid […] phosphate buffer to facilitate hydroxyl radical formation and protein damage, followed by dialysis against DTPA-treated buffer to eliminate the known proaggregating effects of divalent metals ([32]) in the subsequent steps. […] Overall protective effects were more pronounced for the oxidized than nonoxidized form of HγD. […] In the hope to obtain clues on the impact of bis-ANS, drugs C, G, and M on protein aggregation status, native PAGE was performed (Fig. 3G). Polymers greater than 250 kD are present in unheated HγD-nat but only the size of 75 to 100 kD in HγD-ox. […] Other techniques will be needed to assess the relationship between drugs and aggregate size.
as §1

HγD-ox [2] = molecular target: T2, HγD-ox; assay: Turbidity (600 nm) of oxidized HγD heated 10 min at 72 °C; settings: 1.4 mg/ml with DTPA, 100 and 500 μM bis-ANS, 100 μM drug C, 500 μM drug M
Excerpt: as §2

- Tm of HγD-nat (WT-HγD crystallin): 82 ± 0.02 °C
- Tm of HγD-ox (HγD-ox [1]): 78 ± 0.1 °C
Compound: O=S(=O)(O)c1cccc2c(-c3ccc(Nc4ccccc4)c4c(S(=O)(=O)O)cccc34)ccc(Nc3ccccc3)c12 [bis-ANS, bis-8-anilino-1-naphthalene sulfonic acid]
- Effect on aggregation/turbidity of HγD-ox (HγD-ox [2]): strongly suppressed; also recorded: potently inhibited aggregation
